# From ChEMBL document CHEMBL4819077, “Design, synthesis, and biological evaluation of diosgenin-indole derivatives as dual-functional agents for the treatment of Alzheimer's disease” (Eur J Med Chem, 2021)
# Key:
# Assay type in all cases: functional
# Conditions in all cases: time 26 hrs
# SH-SY5Y [1] = experiment: Neuroprotection against Abeta-induced oxidative stress in human SH-SY5Y cells assessed as cell protection at 1 mM incubated for 2 hr before Abeta(1-42) challenge and measured after 24 hrs by MTT assay
# SH-SY5Y [2] = experiment: Neuroprotection against H202-induced oxidative stress in human SH-SY5Y cells assessed as cell protection at 1 mM preincubated for 2 hr before H202 challenge and measured after 24 hrs by MTT assay
# SH-SY5Y [3] = experiment: Neuroprotection against 6-OHDA-induced oxidative stress in human SH-SY5Y cells assessed as cell protection at 1 mM preincubated for 2 hr before 6-OHDA challenge and measured after 24 hrs by MTT assay
compound,measurement,setting,value
CC(=O)N[C@@H](CS)C(=O)O [ACETYLCYSTEINE],Activity,SH-SY5Y [1],67.6%
same,Activity,SH-SY5Y [2],84.73%
same,Activity,SH-SY5Y [3],83.59%
